Results as given in patent US6436988B1, “Use of 3-(2,4,6-trimethylphenyl)-4-neopentylcarbonyloxy-5,5- tetramethylene-Δ3-dihydrofuran-2-one for controlling the white fly” (Bayer Aktiengesellschaft, priority 1999, dated 2002).

The molecules below were run on white fly Bemisia tabaci (assay: Bemisia test). Conditions: concentration of active compound 0.0008 %, infested cotton plants (Gossypium hirsutum) with eggs, larvae and pupae dipped into preparation.
Format: in vivo
Method: Solvent: 7.5 parts by weight of dimethylformamide
Emulsifier: 2.5 parts by weight of alkylaryl polyglycol ether
To produce a suitable preparation of active compound, 1 part by weight of active compound is mixed with the stated amounts of solvent and emulsifier, and the concentrate is diluted with water to the desired concentrations.
Cotton plants (Gossypium hirsutum) infested by eggs, larvae and pupae of the white fly Bemisia tabaci are dipped into a preparation of active compound of the desired concentration.
After the desired period of time, the kill in % is determined. 100% means that all animals have been killed; 0% means that none of the animals have been killed.

| SMILES | Kill in % after 14 days [%] |
| --- | --- |
| Cc1cc(C)c(C2=C(OC(=O)CC(C)(C)C)C3(CCCCC3)OC2=O)c(C)c1 | 50 |
| Cc1cc(C)c(C2=C(OC(=O)C(C)(C)C)C3(CCCC3)OC2=O)c(C)c1 | 0 |
| Cc1cc(C)c(C2=C(OC(=O)CC(C)C)C3(CCCC3)OC2=O)c(C)c1 | 0 |
| Cc1cc(C)c(C2=C(OC(=O)CC(C)(C)C)C3(CCCC3)OC2=O)c(C)c1 [formula (I), 3-(2,4,6-Trimethylphenyl)-4-neopentylcarbonyloxy-5,5-tetramethylene-Δ^3-dihydrofuran-2-one] | 95 |
